Measured values published in patent US12662451B2, “Chemical compounds and uses thereof” (GLAXOSMITHKLINE INTELLECTUAL PROPERTY (NO.4) LIMITED, priority 2023, dated 2026).
Counter-ions that a name gives are not always drawn. Like-named read-outs stand apart in the source and are kept apart here.

Experiments:
[1] = target: T1, recombinant full-length WRN protein (1-1432) (Homo sapiens, UniProt Q14191); assay: WRN unwinding activity, fluorogenic 384-well assay (Example A); type: biochemical; conditions: WRN unwinding activity, 4 hr; Table 2; read-out: 4 hr UNW pIC50 (converted)
T1 construct: recombinant full-length WRN protein (1-1432)
T1 sequence (Q14191 whole entry): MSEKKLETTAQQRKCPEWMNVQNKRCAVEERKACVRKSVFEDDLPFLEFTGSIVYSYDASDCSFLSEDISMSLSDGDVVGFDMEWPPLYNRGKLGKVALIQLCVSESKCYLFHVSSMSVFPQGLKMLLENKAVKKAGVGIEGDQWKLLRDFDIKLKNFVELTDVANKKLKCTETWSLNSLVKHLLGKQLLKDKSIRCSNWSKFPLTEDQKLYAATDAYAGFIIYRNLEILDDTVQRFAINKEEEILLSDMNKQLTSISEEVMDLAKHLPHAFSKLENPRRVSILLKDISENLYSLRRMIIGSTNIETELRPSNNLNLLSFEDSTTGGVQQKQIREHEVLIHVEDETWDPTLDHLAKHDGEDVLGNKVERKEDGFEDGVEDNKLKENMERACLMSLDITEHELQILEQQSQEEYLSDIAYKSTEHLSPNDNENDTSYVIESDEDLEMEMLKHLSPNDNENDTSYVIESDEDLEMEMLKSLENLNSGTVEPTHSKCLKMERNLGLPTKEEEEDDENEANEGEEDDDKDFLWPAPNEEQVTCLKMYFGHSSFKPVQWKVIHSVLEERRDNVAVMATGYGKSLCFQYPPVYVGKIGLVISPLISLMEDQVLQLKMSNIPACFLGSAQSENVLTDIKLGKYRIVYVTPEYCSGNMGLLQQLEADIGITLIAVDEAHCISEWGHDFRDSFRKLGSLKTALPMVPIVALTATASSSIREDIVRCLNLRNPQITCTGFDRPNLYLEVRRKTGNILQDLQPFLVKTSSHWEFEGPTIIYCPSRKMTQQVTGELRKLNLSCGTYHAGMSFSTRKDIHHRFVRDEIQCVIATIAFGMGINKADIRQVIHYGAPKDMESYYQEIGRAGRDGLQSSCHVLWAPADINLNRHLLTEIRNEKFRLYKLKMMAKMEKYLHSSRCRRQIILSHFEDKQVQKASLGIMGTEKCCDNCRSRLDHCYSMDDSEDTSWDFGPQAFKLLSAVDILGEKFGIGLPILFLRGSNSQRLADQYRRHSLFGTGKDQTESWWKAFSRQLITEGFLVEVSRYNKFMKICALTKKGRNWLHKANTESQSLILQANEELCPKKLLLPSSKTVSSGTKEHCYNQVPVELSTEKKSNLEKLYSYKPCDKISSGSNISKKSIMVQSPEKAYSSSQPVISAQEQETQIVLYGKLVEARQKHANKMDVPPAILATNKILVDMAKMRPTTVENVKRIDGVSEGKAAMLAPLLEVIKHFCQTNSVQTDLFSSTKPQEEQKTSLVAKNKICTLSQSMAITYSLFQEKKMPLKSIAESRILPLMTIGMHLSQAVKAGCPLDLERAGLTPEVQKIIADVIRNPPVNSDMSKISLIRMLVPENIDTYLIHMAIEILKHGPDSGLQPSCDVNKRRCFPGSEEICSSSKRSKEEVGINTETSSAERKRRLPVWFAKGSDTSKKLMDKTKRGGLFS
Procedure, shortened: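 Read-out is end-point unwinding of a fluorophore/quencher duplex (ex 525, em 598 nm) after 60 min with 200 μM ATP and 12 nM DNA (2× stocks), EDTA stop. Compound first sat 4 h with 200 pM WRN (2× stock) in pH 8.0 Tris buffer; four-parameter fit gives pIC50.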

[2] = Cell culture media unbound percentage and stability by rapid equilibrium dialysis (Example C); type: in vitro ADME; conditions: bovine, cell assay medium (RPMI-1640 with 10% fetal bovine serum), pH 7.4, rapid equilibrium dialysis, 4 hours at 37° C., read-out: Cell Culture Media Binding (% unbound)
Procedure, shortened: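 Percent unbound in cell assay medium came from the LC-MS/MS receiver:donor peak area ratio, with stability taken as the 240 min over 0 min ratio. Set-up: 1 μM nominal compound in medium dialysed against pH 7.4 PBS (100 mM phosphate, 150 mM NaCl), 4 h, 37° C, shaken, in triplicate.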

[3] = tested on: SW48 human colorectal cancer cells; assay: Calculated free drug potency in SW48 cell assay, corrected with media free fraction (Example C); type: cell-based; conditions: Homo sapiens, SW48, SW48 pCC50 corrected with measured free fraction in cell assay media
Procedure, shortened: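 Free drug potency derives from correcting SW48 assay concentrations with the unbound fraction in medium. That fraction came from RED against pH 7.4 PBS, 1 μM nominal compound, 4 h at 37 °C, quantified by LC-MS/MS peak area ratios at T=240 versus T=0 min.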

[4] = tested on: SW48 human colorectal cancer cells (MSI-H cancer cells); assay: SW48 cell viability, CellTiter-Glo, 120 hours (Example B); conditions: Homo sapiens
[5] = SW48, 120 h, read-out: SW48 pCC50, SW48 cell viability, 120 hours incubation (converted), Table 2
[6] = SW48, read-out: SW48 pCC50, measured potency from Example B, as repeated in Table 3 (converted)

| IC50 [1] [nM] | fraction unbound at 4 h, 1 µM [2] | Compound | CC50 [3] [nM] | CC50 [4, 5] [nM] | CC50 [4, 6] [nM] |
| --- | --- | --- | --- | --- | --- |
| 2.51 | 0.0856 | Cc1nc2cc(S(=O)(=O)N(C)c3ccc([C@H]4C[C@@H](OC(C)C)C[C@@H](C(=O)Nc5ccc(C(F)(F)F)cc5F)[C@@H]4C(=O)O)cc3)ccc2n1C (stereo in doubt) [Example 311, rel-(1R,2R,4R,6S)-2-((2-fluoro-4-(trifluoromethyl)phenyl)carbamoyl)-4-isopropoxy-6-(4-((N,1,2-trimethyl-1H-benzo[d]imidazole)-5-sulfonamido)phenyl)cyclohexane-1-carboxylic acid] | 21.4 | 251 | 251 |
| 1.58 | 0.0795 | Cc1nc2cc(S(=O)(=O)N(C)c3ccc([C@H]4C[C@@H](OCC5CC5)C[C@@H](C(=O)Nc5ccc(C(F)(F)F)cc5F)[C@@H]4C(=O)O)cc3)ccc2n1C (stereo in doubt) [Example 314, rel-(1R,2R,4R,6S)-4-(cyclopropylmethoxy)-2-((2-fluoro-4-(trifluoromethyl)phenyl)carbamoyl)-6-(4-((N,1,2-trimethyl-1H-benzo[d]imidazole)-5-sulfonamido)phenyl)cyclohexane-1-carboxylic acid] | 12.6 | 158 | 158 |
| 63.1 | 0.384 | COCCO[C@@H]1C[C@H](C(=O)Nc2ccc(C(F)(F)F)cc2F)[C@@H](C(=O)O)[C@H](c2ccc(N(C)S(=O)(=O)c3ccc4c(c3)nc(C)n4C)cc2)C1 (stereo in doubt) [Example 315, rel-(1R,2R,4R,6S)-2-((2-fluoro-4-(trifluoromethyl)phenyl)carbamoyl)-4-(2-methoxyethoxy)-6-(4-((N,1,2-trimethyl-1H-benzo[d]imidazole)-5-sulfonamido)phenyl)cyclohexane-1-carboxylic acid] | 3800 | 10000 | – |
| 1.58 | 0.19 | COCCO[C@@H]1C[C@H](c2ccc(N(C)S(=O)(=O)c3ccc4c(c3)nc(C)n4C)cc2)[C@@H](C(=O)O)[C@H](C(=O)Nc2ccc(C(F)(F)F)cc2F)C1 (stereo in doubt) [Example 316, rel-(1R,2R,4R,6S)-2-((2-fluoro-4-(trifluoromethyl)phenyl)carbamoyl)-4-(2-methoxyethoxy)-6-(4-((N,1,2-trimethyl-1H-benzo[d]imidazole)-5-sulfonamido)phenyl)cyclohexane-1-carboxylic acid] | 30.2 | 158 | 158 |
| 1.58 | 0.15 | Cc1nc2cc(S(=O)(=O)N(C)c3ccc([C@H]4C[C@@H](OC[C@H]5CCOC5)C[C@@H](C(=O)Nc5ccc(C(F)(F)F)cc5F)[C@@H]4C(=O)O)cc3)ccc2n1C (stereo in doubt) [Example 317, (1R*,2R*,4R*,6S*)-2-((2-fluoro-4-(trifluoromethyl)phenyl)carbamoyl)-4-(((S)-tetrahydrofuran-3-yl)methoxy)-6-(4-((N,1,2-trimethyl-1H-benzo[d]imidazole)-5-sulfonamido)phenyl)cyclohexane-1-carboxylic acid] | 12 | 79.4 | 79.4 |
| 3.98 | 0.112 | Cc1nc2cc(S(=O)(=O)N(C)c3ccc([C@H]4C[C@@H](OC[C@@H]5CCOC5)C[C@@H](C(=O)Nc5ccc(C(F)(F)F)cc5F)[C@@H]4C(=O)O)cc3)ccc2n1C (stereo in doubt) [Example 320, (1R*,2R*,4R*,6S*)-2-((2-fluoro-4-(trifluoromethyl)phenyl)carbamoyl)-4-(((R)-tetrahydrofuran-3-yl)methoxy)-6-(4-((N,1,2-trimethyl-1H-benzo[d]imidazole)-5-sulfonamido)phenyl)cyclohexane-1-carboxylic acid] | 8.91 | 79.4 | 79.4 |
| 20 | 0.362 | Cc1nc2cc(S(=O)(=O)N(C)c3ccc([C@@H]4C[C@H](O[C@@H]5CCOC5)C[C@H](C(=O)Nc5ccc(C(F)(F)F)cc5F)[C@H]4C(=O)O)cc3)ccc2n1C (stereo in doubt) [Example 322, (1R*,2R*,4R*,6S*)-2-((2-fluoro-4-(trifluoromethyl)phenyl)carbamoyl)-4-(((R)-tetrahydrofuran-3-yl)oxy)-6-(4-((N,1,2-trimethyl-1H-benzo[d]imidazole)-5-sulfonamido)phenyl)cyclohexane-1-carboxylic acid] | 3630 | 10000 | – |

The remaining lines, values behind:

| Compound | IC50 [1] [nM] | fraction unbound at 4 h, 1 µM [2] | CC50 [3] [nM] | CC50 [4, 5] [nM] | CC50 [4, 6] [nM] |
| --- | --- | --- | --- | --- | --- |
| Cc1nc2cc(S(=O)(=O)N(C)c3ccc([C@@H]4CCC[C@H](COc5ccc(C(F)(F)F)cc5)[C@H]4C(=O)O)cc3)cc([C@H]3CCCNC3)c2n1C (stereo in doubt) [Example 208, rel-(1R,2R,6S)-2-((4-(trifluoromethyl)phenoxy)methyl)-6-(4-((N,1,2-trimethyl-7-((R)-piperidin-3-yl)-1H-benzo[d]imidazole)-5-sulfonamido)phenyl)cyclohexane-1-carboxylic acid, hydrochloride] | 1.58 | 0.0289 | 36.3 | 1260 | 1260 |
| Cc1nc2cc(S(=O)(=O)N(C)c3ccc([C@H]4C[C@@H](N(C)C)C[C@@H](C(=O)Nc5ccc(C(F)(F)F)cc5F)[C@@H]4C(=O)O)cc3)ccc2n1C (stereo in doubt) [Example 251, rel-(1R,2R,4R,6S)-4-(dimethylamino)-2-((2-fluoro-4-(trifluoromethyl)phenyl)carbamoyl)-6-(4-((N,1,2-trimethyl-1H-benzo[d]imidazole)-5-sulfonamido)phenyl)cyclohexane-1-carboxylic acid] | 1 | 0.274 | 138 | 501 | 501 |
| Cc1nc2cc(S(=O)(=O)N(C)c3ccc([C@H]4C[C@@H](OC(F)F)C[C@@H](C(=O)Nc5ccc(C(F)(F)F)cc5F)[C@@H]4C(=O)O)cc3)ccc2n1C (stereo in doubt) [Example 284, rel-(1R,2R,4R,6S)-4-(difluoromethoxy)-2-((2-fluoro-4-(trifluoromethyl)phenyl)carbamoyl)-6-(4-((N,1,2-trimethyl-1H-benzo[d]imidazole)-5-sulfonamido)phenyl)cyclohexane-1-carboxylic acid] | 3.16 | 0.068 | 13.5 | 200 | 200 |
| CC(=O)N(C)[C@@H]1C[C@H](c2ccc(N(C)S(=O)(=O)c3ccc4c(c3)nc(C)n4C)cc2)[C@@H](C(=O)O)[C@H](C(=O)Nc2ccc(C(F)(F)F)cc2F)C1 (stereo in doubt) [Example 292, rel-(1R,2R,4R,6S)-2-((2-fluoro-4-(trifluoromethyl)phenyl)carbamoyl)-4-(N-methylacetamido)-6-(4-((N,1,2-trimethyl-1H-benzo[d]imidazole)-5-sulfonamido)phenyl)cyclohexane-1-carboxylic acid] | 1.58 | 0.223 | 178 | 794 | 794 |
| CC(=O)N(C)[C@H]1C[C@H](c2ccc(N(C)S(=O)(=O)c3ccc4c(c3)nc(C)n4C)cc2)[C@@H](C(=O)O)[C@H](C(=O)Nc2ccc(C(F)(F)F)cc2F)C1 (stereo in doubt) [Example 294, rel-(1R,2R,4S,6S)-2-((2-fluoro-4-(trifluoromethyl)phenyl)carbamoyl)-4-(N-methylacetamido)-6-(4-((N,1,2-trimethyl-1H-benzo[d]imidazole)-5-sulfonamido)phenyl)cyclohexane-1-carboxylic acid] | 1.58 | 0.256 | 1620 | 6310 | 6310 |
| Cc1nc2cc(S(=O)(=O)N(C)c3ccc([C@H]4C[C@@H](N)C[C@@H](C(=O)Nc5ccc(C(F)(F)F)cc5F)[C@@H]4C(=O)O)cc3)ccc2n1C (stereo in doubt) [Example 301, rel-(1R,2R,4R,6S)-4-amino-2-((2-fluoro-4-(trifluoromethyl)phenyl)carbamoyl)-6-(4-((N,1,2-trimethyl-1H-benzo[d]imidazole)-5-sulfonamido)phenyl)cyclohexane-1-carboxylic acid] | 1.58 | 0.406 | 1620 | 3980 | 3980 |
| CC(=O)N1C[C@H](c2ccc(N(C)S(=O)(=O)c3ccc4c(c3)nc(C)n4C)cc2)[C@@H](C(=O)O)[C@H](C(=O)Nc2ccc(C(F)(F)F)cc2F)C1 (stereo in doubt) [Example 310, rel-(3R,4S,5R)-1-acetyl-3-((2-fluoro-4-(trifluoromethyl)phenyl)carbamoyl)-5-(4-((N,1,2-trimethyl-1H-benzo[d]imidazole)-5-sulfonamido)phenyl)piperidine-4-carboxylic acid] | 1.58 | 0.273 | 437 | 1580 | 1580 |
